Source: patent US8053453B2, “Pyrazolone compounds and thrombopoietin receptor activator” (Nissan Chemical Industries, Ltd., priority 2002, dated 2011)
Where two headings read alike, the source gives them in different places.

Columns and labels:
[1] = target: T1, human TPO receptor (Homo sapiens, UniProt P40238); assay: Proliferation of TPO-dependent cell line UT7/EPO-mpl, MTT method (Assay Examples 1, 3, 4); type: cell-based; details: UT7/EPO-mpl cells; for EC50: concentration giving 50% of the maximum cell growth observed with the same compound
T1 construct: expressed in transfected cells
T1 sequence (P40238 26-635): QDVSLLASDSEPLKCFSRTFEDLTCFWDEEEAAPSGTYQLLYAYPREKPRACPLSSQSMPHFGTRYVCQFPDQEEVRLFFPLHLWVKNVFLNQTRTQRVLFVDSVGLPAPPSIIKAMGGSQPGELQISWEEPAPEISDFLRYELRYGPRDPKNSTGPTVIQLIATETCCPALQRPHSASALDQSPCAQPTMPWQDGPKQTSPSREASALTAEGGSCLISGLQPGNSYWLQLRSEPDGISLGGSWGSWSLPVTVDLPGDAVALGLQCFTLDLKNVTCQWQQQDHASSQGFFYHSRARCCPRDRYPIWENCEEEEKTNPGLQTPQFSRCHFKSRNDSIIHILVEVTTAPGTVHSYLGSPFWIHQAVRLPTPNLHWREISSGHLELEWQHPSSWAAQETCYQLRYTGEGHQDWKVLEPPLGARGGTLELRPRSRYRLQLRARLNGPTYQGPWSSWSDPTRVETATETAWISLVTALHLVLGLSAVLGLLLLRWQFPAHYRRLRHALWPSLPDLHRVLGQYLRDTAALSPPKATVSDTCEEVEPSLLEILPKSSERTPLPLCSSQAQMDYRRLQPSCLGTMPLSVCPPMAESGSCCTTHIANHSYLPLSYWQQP
Procedure: The reactivity of Synthetic Example 56, the compound of the present invention, with thrombopoietin (TPO) receptor was assayed using a human leukemic cell line, UT7/EPO-mpl.
UT7/EPO-mpl is a stable transformed cell line obtained by introducing into human leukemic cell line UT7/EPO a vector that induces expression of human TPO receptor (c-mp1) under control of a cytomegaloviral promoter by the method of Takatoku et al. (J. Biol. Chem., 272:7259-7263 (1997)). […] These two cell lines were subcultured in Iscove's modified Dulbecco's medium (IMDM; GIBCO) containing 10% fetal bovine serum (FBS; TRACE SCIENTIFIC) using a CO2 incubator (5% CO2, 37° C.).
The subcultured cells described above were washed twice with phosphate buffered saline (PBS) and suspended in IMDM containing 10% FBS at a cell density of 6×10^4 cells/ml. The cell suspension was transferred to a 96-well tissue culture plate (CORNING) in 100-μl aliquots. Then either TPO (PeproTech EC) or Synthetic Example 56 dissolved in dimethylsulfoxide (DMSO) was diluted 83-fold with IMDM containing 10% FBS and added to the aforementioned cell suspension in 20-μl aliquots. The suspension was incubated in a CO2 incubator (5% CO2, 37° C.) for 4 days. Cell proliferation was assayed according to the method of Mosmann et al. (J. Immunol. Methods, 65:55-63 (1983)). A 10-μl aliquot of 5 mg/ml MTT reagent (SIGMA) was added to each well of the tissue culture plate and the plate was incubated at 37° C. for 4 h. The formazan pigment generated was dissolved by adding 150 μl per well of 0.1 M HCl/isopropanol solution and the absorbance of the resulting pigment solution was measured at 550 nm with a 96-well microplate reader (BIO-RAD, M450).
The following Synthetic Examples were tested according to the method of Assay Example 1 to determine the maximal growth rate (efficacy), expressed by taking the value with human leukemic cell line UT7/EPO-mpl observed in the presence of 10 ng/ml TPO as 100% standard, and the concentration of each compound that yields a growth rate corresponding to 50% of the maximum cell growth observed with the same compound (EC50).
Synthetic Example 56, the compound of the present invention, and four compounds (Reference Synthetic Examples 1 to 4) described in a publication of international patent application (Publication No. WO01/34585, applied by SmithKline Beecham Corp.) were tested according to the method of Assay Example 1.

[2] = target: T1, human TPO receptor; assay: Proliferation of TPO-dependent cell line UT7/EPO-mpl, WST-8 reagent (Assay Example 5); type: cell-based; details: WST-8, 4 days; for Efficacy (%) (maximal growth rate): growth with 10 ng/ml TPO = 100%
Procedure: Human leukemic cell line UT7/EPO-mpl was washed twice with PBS and suspended in IMDM containing 10% FBS at a cell density of 6×10^4 cells/ml. The cell suspension was transferred to a 96-well tissue culture plate (CORNING) in 100-μl aliquots. Then either TPO or the following Synthetic Examples, each dissolved in DMSO, were diluted 83-fold with IMDM containing 10% FBS and added to the aforementioned cell suspension in 20-μl aliquots. The suspension was incubated in a CO2 incubator (5% CO2, 37° C.) for 4 days. Cell proliferation was assayed using WST-8 reagent (Kishida Chemical, Co. Ltd.) according to instructions by the manufacturer. A 10-μl aliquot of 5 mM WST-8 reagent solution was added to each well of the tissue culture plate and the plate was incubated at 37° C. for 4 h. The formazan pigment generated was detected by measuring the absorbance at 450 nm with a 96-well microplate reader (Nihon Molecular Devices, SpectraMax 190). The concentration of each compound that yields a growth rate corresponding to 50% of the growth of human leukemic cell line UT7/EPO-mpl observed in the presence of 10 ng/ml TPO (EC50T) and the maximal growth rate achieved by the same compound (efficacy), expressed by taking the value with human leukemic cell line UT7/EPO-mpl in the presence of 10 ng/ml TPO as 100% standard, are summarized in Table 9.

[3] = value in the presence of 10 ng/ml TPO taken as 100% standard, method of Assay Example 1

Structure (SMILES)	EC50 [1]	Efficacy (%) (maximal growth rate) [1, 3]	further results
CC1=NN(c2ccc(Cl)c(Cl)c2)C(=O)C1=C(C)NNC(=O)c1ccc(O)c(O)c1 [compound 65]	0.0089 µg/mL	70%	
CC1=NN(c2ccc(Cl)c(Cl)c2)C(=O)C1=C(C)NNC(=O)c1ccccc1[N+](=O)[O-] [compound 66]	0.033 µg/mL	133%	
CC1=NN(c2ccc(Cl)c(Cl)c2)C(=O)C1=C(C)NNC(=O)c1cccc([N+](=O)[O-])c1 [compound 67]	0.033 µg/mL	80%	
CC1=NN(c2ccc(Cl)c(Cl)c2)C(=O)C1=C(C)NNC(=O)c1ccc([N+](=O)[O-])cc1 [compound 68]	0.21 µg/mL	26%	
CC1=NN(c2ccc(C(C)(C)C)cc2)C(=O)C1=C(C)NNC(=O)c1ccc(N)cc1 [compound 69]	0.0057 µg/mL	89%	
CC1=NN(c2ccc(C(C)(C)C)cc2)C(=O)C1=C(C)NNC(=O)c1cccc(N)c1 [compound 70]	0.023 µg/mL	87%	
CC1=NN(c2ccc(C(C)(C)C)cc2)C(=O)C1=C(C)NNC(=O)c1ccc(C(F)(F)F)cc1 [compound 71]	0.069 µg/mL	89%	
CC1=NN(c2ccc(C(C)(C)C)cc2)C(=O)C1=C(C)NNC(=O)c1ccc(C(C)(C)C)cc1 [compound 72]	0.075 µg/mL	88%	
CC1=NN(c2ccc(C)c(C)c2)C(=O)C1=C(C)NNC(=O)c1ccc(N)cc1 [compound 73]	0.01 µg/mL	84%	
CC1=NN(c2ccc(C)c(C)c2)C(=O)C1=C(C)NNC(=O)c1cccc(N)c1 [compound 74]	0.025 µg/mL	77%	
CC1=NN(c2ccc(C)c(C)c2)C(=O)C1=C(C)NNC(=O)c1ccc(C(F)(F)F)cc1 [compound 75]	0.063 µg/mL	89%	
CC1=NN(c2ccc(C)c(C)c2)C(=O)C1=C(C)NNC(=O)c1ccc(C(C)(C)C)cc1 [compound 76]	0.046 µg/mL	79%	
CC1=NN(c2ccc(Cl)c(Cl)c2)C(=O)C1=C(C)NNC(=O)c1ccc(N)cc1 [compound 77]	0.0051 µg/mL	78%	
CC1=NN(c2ccc(Cl)c(Cl)c2)C(=O)C1=C(C)NNC(=O)c1cccc(N)c1 [compound 78]	0.015 µg/mL	69%	
CC1=NN(c2ccc(Cl)c(Cl)c2)C(=O)C1=C(C)NNC(=O)c1ccc(C(F)(F)F)cc1 [compound 79]	0.16 µg/mL	81%	
CC1=NN(c2ccc(Cl)c(Cl)c2)C(=O)C1=C(C)NNC(=O)c1ccc(C(C)(C)C)cc1 [compound 80]	0.64 µg/mL	71%	
CC1=NN(c2ccc(C(C)(C)C)cc2)C(=O)C1=C(C)NNC(=O)c1cccc(O)c1 [compound 81]	0.0072 µg/mL	84%	
CC1=NN(c2ccc(C)c(C)c2)C(=O)C1=C(C)NNC(=O)c1cccc(O)c1 [compound 82]	0.026 µg/mL	84%	
CC1=NN(c2ccc(Cl)c(Cl)c2)C(=O)C1=C(C)NNC(=O)c1cccc(O)c1 [compound 83]			EC50 ([1]; read-out: EC50 (ng/ml) (converted)): 14.5 nM; Emax ([1]; value in the presence of 10 ng/ml TPO taken as 100% standard, method of Assay Example 1, read-out: Efficacy (%) (maximal growth rate)): 78%
CC1=NN(c2cccc([N+](=O)[O-])c2)C(=O)C1=C(C)NNC(=O)c1cccc([N+](=O)[O-])c1 [compound 84]	0.13 µg/mL	109%	
CC1=NN(c2cccc([N+](=O)[O-])c2)C(=O)C1=C(C)NNC(=O)c1ccc(O)cc1O [compound 86]	0.021 µg/mL	105%	
CC1=NN(c2ccccn2)C(=O)C1=C(C)NNC(=O)c1ccc(O)cc1O [compound 87]	0.6 µg/mL	71%	
CC1=NN(c2cccc([N+](=O)[O-])c2)C(=O)C1=C(C)NNC(=O)c1ccc(C(C)(C)C)cc1 [compound 88]	0.13 µg/mL	70%	
CC1=NN(c2cccc(C(F)(F)F)c2)C(=O)C1=C(C)NNC(=O)c1cccc(N)c1 [compound 89]	0.039 µg/mL	68%	
CC1=NN(c2cccc(C(F)(F)F)c2)C(=O)C1=C(C)NNC(=O)c1ccc(N)cc1 [compound 90]	0.021 µg/mL	76%	
CC1=NN(c2ccc(C(F)(F)F)cc2)C(=O)C1=C(C)NNC(=O)c1cccc(N)c1 [compound 91]	0.024 µg/mL	81%	
CC1=NN(c2ccc(C(F)(F)F)cc2)C(=O)C1=C(C)NNC(=O)c1ccc(N)cc1 [compound 92]	0.0055 µg/mL	82%	
CC1=NN(c2ccc(C)c(C)c2)C(=O)C1=CNNC(=O)c1ccc(O)cc1O [compound 93]	0.0043 µg/mL	84%	
CC(NNC(=O)c1ccc(O)cc1O)=C1C(=O)N(c2ccc(C)c(C)c2)N=C1C(F)(F)F [compound 94]			EC50T (concentration yielding 50% of the growth observed with 10 ng/ml TPO) [2]: 0.0033 µg/mL; Efficacy (%) (maximal growth rate) [2]: 95%
COC(=O)c1ccc(C(=O)NNC(C)=C2C(=O)N(c3ccc(C)c(C)c3)N=C2C(F)(F)F)cc1 [compound 95]			EC50T (concentration yielding 50% of the growth observed with 10 ng/ml TPO) [2]: 0.052 µg/mL; Efficacy (%) (maximal growth rate) [2]: 71%
